biological target: recombinant human GST-Syk (Homo sapiens (Human), UniProt P43405); assay: Homogeneous Time-Resolved Fluorescence (HTRF) assay for the recombinant human Syk enzyme; type: biochemical; details: recombinant human GST-Syk 5 pM, ATP 25 μM, read-out: rhSyk IC50
Outline: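 Recombinant GST-hSyk fusion protein kinase activity was read by HTRF. Reactions were started with biotinylated substrate peptide at 250 nM final, Mg 5 mM final and ATP 25 μM final. Potency derived from inhibition of substrate phosphorylation.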

Compared with Cc1cc(Nc2cc(C(F)(F)F)ccn2)nc(-c2ccc(NC3CCN(C(=O)CCN4CCCC4=O)CC3)nc2)c1 [Example 4-11], Cc1cc(Nc2cc(C(F)(F)F)ccn2)nc(-c2ccc(NC3CCN(C(=O)Cc4ccc(O)c(Cl)c4)CC3)nc2)c1 [Example 4-100] is 4.5-fold higher in IC50: 0.002 µM for the first, 0.009 µM for the second.

First: Cc1cc(Nc2cc(C(F)(F)F)ccn2)nc(-c2ccc(NC3CCN(C(=O)c4cccc(-c5ccccc5)c4)CC3)nc2)c1 [Example 4-122]
Second: Cc1cc(Nc2cc(C(F)(F)F)ccn2)nc(-c2ccc(NC3CCN(C(=O)c4cccc(-c5ccncc5)c4)CC3)nc2)c1 [Example 4-19]
The IC50 of the first is 4-fold lower: 0.003 µM for the first, 0.012 µM for the second.

Compared with CC(=O)OC(C)OC(=O)[C@H]1CC[C@H](C(C)(O)c2ccc(-c3cc(C)cc(Nc4cc(C(F)F)ccn4)n3)cn2)CC1 (single isomer, unassigned) [Example 21-3, 1-(acetyloxy)ethyl trans-4-[(1R or 1S)-1-(6-{[4-(difluoromethyl)pyridin-2-yl]amino}-4-methyl-2,3′-bipyridin-6′-yl)-1-hydroxyethyl] cyclohexanecarboxylate], Cc1cc(Nc2cc(C(F)F)ccn2)nc(-c2ccc(C(C)(O)[C@H]3CC[C@H](C(=O)OC(C)OC(=O)C(C)C)CC3)nc2)c1 (single isomer, unassigned) [Example 21-5, 1-[(2-methylpropanoyl)oxy]ethyl trans-4-[(1R or 1S)-1-(6-{[4-(difluoromethyl)pyridin-2-yl]amino}-4-methyl-2,3′-bipyridin-6′-yl)-1-hydroxyethyl] cyclohexanecarboxylate] is 22-fold higher in IC50: 0.0015 µM for the first, 0.033 µM for the second.

CCCCOC(=O)C1CCC(C(C)(O)c2ccc(-c3cc(C)cc(Nc4cc(C(F)(F)F)ccn4)n3)cn2)CC1 (stereo not drawn) [Example 1-15] and CC(=O)OCCOC(=O)[C@H]1CC[C@H](C(C)(O)c2ccc(-c3cc(C)cc(Nc4cc(C(F)F)ccn4)n3)cn2)CC1 (single isomer, unassigned) [Example 21-6, 2-(acetyloxy)ethyl trans-4-[(1R or 1S)-1-(6-{[4-(difluoromethyl)pyridin-2-yl]amino}-4-methyl-2,3′-bipyridin-6′-yl)-1-hydroxyethyl] cyclohexanecarboxylate] are within 1.5-fold of each other in IC50: 0.019 µM for the first, 0.015 µM for the second.

Cc1cc(Nc2cc(C(F)F)ccn2)nc(-c2ccc(C(C)(O)[C@H]3CC[C@@H](C(=O)O)CC3)nc2)c1 (single isomer, unassigned) [Example 12-2, cis-4-[(1R or 1S)-(6-{[4-(difluoromethyl)pyridin-2-yl]amino}-4-methyl-2,3′-bipyridin-6′-yl)-1-hydroxyethyl]cyclohexanecarboxylic acid] and Cc1cc(Nc2cc(C(F)F)ccn2)nc(-c2ccc(C(C)(O)[C@H]3CC[C@H](C(=O)O)CC3)nc2)c1 (single isomer, unassigned) [Example 16, Sodium trans-4-[(1R or 1S)-1-(6-{[4-(difluoromethyl)pyridin-2-yl]amino}-4-methyl-2,3′-bipyridin-6′-yl)-1-hydroxyethyl]cyclohexanecarboxylate] cannot be ordered by IC50: less than 0.0005 µM for the first, less than 0.0005 µM for the second.

Going from Cc1cc(Nc2cc(C(F)(F)F)ccn2)nc(-c2ccc(NC3CCN(C(=O)c4cc5cccc(C)c5nc4C)CC3)nc2)c1 [Example 4-21] to Cc1cc(Nc2cc(C(F)(F)F)ccn2)nc(-c2ccc(NC3CCN(C(=O)c4ccc5nc(C)c(C)nc5c4)CC3)nc2)c1 [Example 4-97], the IC50 falls from 0.089 µM to 0.002 µM (44-fold). The second is the more potent here.

Compared with Cc1cc(Nc2cc(C(F)(F)F)ccn2)nc(-c2ccc(NCC3CCC(C(=O)O)CC3)nc2)c1 (stereo not drawn) [Example 2-23], Cc1cc(Nc2cc(C(F)(F)F)ccn2)nc(-c2ccc(C(C)[C@H]3CC[C@H](C(=O)O)CC3)nc2)c1 (single isomer, unassigned) [Example 14, trans-4-[(1R or 1S)-(4-Methyl-6-{[4-(trifluoromethyl)pyridin-2-yl]amino}-2,3′-bipyridin-6′-yl)ethyl]cyclohexanecarboxylic acid] is lower in IC50: 0.003 µM for the first, less than 0.0005 µM for the second. The second is the more potent here.

Going from Cc1cc(Nc2cc(C(F)(F)F)ccn2)nc(-c2ccc(NC3CCN(C(=O)c4cnn5cccnc45)CC3)nc2)c1 [Example 4-37] to Cc1cc(Nc2cc(C(F)(F)F)ccn2)nc(-c2ccc(NC3CCN(C(=O)c4cnc5ccccn45)CC3)nc2)c1 [Example 4-63], the IC50 rises from 0.001 µM to 0.007 µM (7-fold). The first is the more potent here.

First: COC(=O)C1CCC(O)(c2ccc(-c3cc(C)cc(Nc4cc(C(F)(F)F)ccn4)n3)cn2)CC1(C)C (single isomer, unassigned) [Example 1-6]
Second: CCOC(=O)C1CCC(O)(c2ccc(-c3cc(C)cc(Nc4cc(C(F)(F)F)ccn4)n3)cn2)CC1 (stereo not drawn) [Example 1-10]
The IC50 of the first is 9-fold higher: 0.405 µM for the first, 0.045 µM for the second. The second is the more potent here.

Going from Cc1cc(Nc2cc(C(F)F)ccn2)nc(-c2ccc(C3(O)CCC3)nc2)c1 [Example 1-13] to Cc1cc(Nc2cc(C(F)F)ccn2)nc(-c2ccc(C(C)(O)[C@H]3CC[C@H](C(=O)OC(C)C)CC3)nc2)c1 (single isomer, unassigned) [Example 19-3, propan-2-yl trans-4-[(1R or 1S)-1-(6-{[4-(difluoromethyl)pyridin-2-yl]amino}-4-methyl-2,3′-bipyridin-6′-yl)-1-hydroxyethyl] cyclohexanecarboxylate], the IC50 rises from 0.005 µM to 0.05 µM (10-fold).

Cc1cc(Nc2cc(C(F)(F)F)ccn2)nc(-c2ccc(NC3CCN(C(=O)c4ccc5ccccc5n4)CC3)nc2)c1 [Example 4-24] and Cc1cc(Nc2cc(C(F)(F)F)ccn2)nc(-c2ccc(NC3CCN(C(=O)c4cccc5cccnc45)CC3)nc2)c1 [Example 4-45] are the same in IC50: 0.007 µM for the first, 0.007 µM for the second.

First: Cc1cc(Nc2cc(C(F)(F)F)ccn2)nc(-c2ccc(NC3CCN(C(=O)Cc4ccc5cn[nH]c5c4)CC3)nc2)c1 [Example 4-3]
Second: Cc1cc(Nc2cc(C(F)(F)F)ccn2)nc(-c2ccc(NC3CCN(C(=O)Cc4ccc(O)cc4)CC3)nc2)c1 [Example 4-108]
The IC50 of the first is 2.7-fold higher: 0.008 µM for the first, 0.003 µM for the second. The second is the more potent here.

Compared with Cc1cc(Nc2cc(C(F)(F)F)ccn2)nc(-c2ccc(NC3CCN(C(=O)c4nn(-c5ccccc5)nc4C)CC3)nc2)c1 [Example 4-30], Cc1cc(Nc2cc(C(F)(F)F)ccn2)nc(-c2ccc(NC3CCN(C(=O)c4ccnn4-c4ccccc4)CC3)nc2)c1 [Example 4-32] is 2.5-fold lower in IC50: 0.137 µM for the first, 0.054 µM for the second. The second is the more potent here.

Compared with Cc1cc(Nc2cc(C(F)(F)F)ccn2)nc(-c2ccc(NC3CCN(C(=O)Cc4ccccc4Cl)CC3)nc2)c1 [Example 4-95], Cc1cc(Nc2cc(C(F)(F)F)ccn2)nc(-c2ccc(NC3CCN(C(=O)Cc4cccc(Oc5ccccc5)c4)CC3)nc2)c1 [Example 4-74] is 4.8-fold higher in IC50: 0.012 µM for the first, 0.057 µM for the second.

Going from Cc1cc(Nc2cc(C(F)(F)F)ccn2)nc(-c2ccc(NC3CCC(C(=O)O)C(C)(C)C3)nc2)c1 (single isomer, unassigned) [Example 3-4] to Cc1cc(Nc2cc(C(F)(F)F)ccn2)nc(-c2ccc(N3CCCC3C(=O)O)nc2)c1 (stereo not drawn) [Example 2-17], the IC50 rises from less than 0.0005 µM to 0.039 µM. The first is the more potent here.

First: Cc1cc(Nc2cc(C(F)(F)F)ccn2)nc(-c2ccc(NC3CCN(C(=O)c4cccc5c4NC(=O)C5)CC3)nc2)c1 [Example 447]
Second: Cc1cc(Nc2cc(C(F)(F)F)ccn2)nc(-c2ccc(NC3CCN(C(=O)c4cccc5c4-c4ccccc4C5)CC3)nc2)c1 [Example 4-117]
The IC50 of the first is 23-fold lower: 0.006 µM for the first, 0.141 µM for the second.

First: CC(=O)OC(C)OC(=O)[C@H]1CC[C@H](C(C)(O)c2ccc(-c3cc(C)cc(Nc4cc(C(F)F)ccn4)n3)cn2)CC1 (single isomer, unassigned) [Example 21-2, 1-(acetyloxy)ethyl trans-4-[(1R or 1S)-1-(6-{[4-(difluoromethyl)pyridin-2-yl]amino}-4-methyl-2,3′-bipyridin-6′-yl)-1-hydroxyethyl] cyclohexanecarboxylate]
Second: CCOCCOCCOC(=O)[C@H]1CC[C@H](C(C)(O)c2ccc(-c3cc(C)cc(Nc4cc(C(F)F)ccn4)n3)cn2)CC1 (single isomer, unassigned) [Example 19-16, 2-(2-ethoxyethoxy)ethyl trans-4-[(1R or 1S)-1-(6-{[4-(difluoromethyl)pyridin-2-yl]amino}-4-methyl-2,3′-bipyridin-6′-yl)-1-hydroxyethyl] cyclohexanecarboxylate]
The IC50 of the first is 2.8-fold lower: 0.0043 µM for the first, 0.012 µM for the second. The first is the more potent here.

Compared with Cc1cc(Nc2cc(C(F)(F)F)ccn2)nc(-c2ccc(NC3CCN(C(=O)Cc4ccc(-c5cn[nH]c5)cc4)CC3)nc2)c1 [Example 4-1], COc1ccc2cc(CC(=O)N3CCC(Nc4ccc(-c5cc(C)cc(Nc6cc(C(F)(F)F)ccn6)n5)cn4)CC3)ccc2c1 [Example 4-53] is 8.7-fold higher in IC50: 0.009 µM for the first, 0.078 µM for the second. The first is the more potent here.

Compared with Cc1cc(Nc2cc(C(F)(F)F)ccn2)nc(-c2ccc(NC3CCN(C(=O)c4cccc(-c5cc[nH]n5)c4)CC3)nc2)c1 [Example 4-62], Cc1cc(Nc2cc(C(F)(F)F)ccn2)nc(-c2ccc(NC3CCN(C(=O)c4ccc5[nH]cc(C)c5c4)CC3)nc2)c1 [Example 4-7] is 1.5-fold lower in IC50: 0.015 µM for the first, 0.01 µM for the second. The second is the more potent here.

Going from Cc1cc(Nc2cc(C(F)(F)F)ccn2)nc(-c2ccc(F)nc2)c1 [Example 1-1] to COC(=O)C1CCC(C(=O)c2ccc(-c3cc(C)cc(Nc4cc(C(F)(F)F)ccn4)n3)cn2)CC1 (stereo not drawn) [Example 1-12], the IC50 rises from 0.038 µM to 0.643 µM (17-fold).

Compared with Cc1cc(Nc2cc(C(F)(F)F)ccn2)nc(-c2ccc(C3(O)CCN(C(=O)c4c[nH]c5cc(C)ccc45)CC3)nc2)c1 [Example 9-3], Cc1cc(Nc2cc(C(F)(F)F)ccn2)nc(-c2ccc(C3(O)CCN(C(=O)c4ccc5nc(C)c(C)nc5c4)CC3)nc2)c1 [Example 9-4] is 2-fold lower in IC50: 0.01 µM for the first, 0.005 µM for the second. The second is the more potent here.

Compared with Cc1cc(Nc2cc(C(F)(F)F)ccn2)nc(-c2ccc(N3CCC(C(=O)N4CCC(C(=O)O)CC4)CC3)nc2)c1 [Example 2-26], Cc1cc(Nc2cc(C(F)(F)F)ccn2)nc(-c2ccc(N3CCCC(NC(=O)OC(C)(C)C)C3)nc2)c1 (stereo not drawn) [Example 2-2] is 90-fold higher in IC50: 0.003 µM for the first, 0.271 µM for the second. The first is the more potent here.

Going from Cc1cc(Nc2cc(C(F)(F)F)ccn2)nc(-c2ccc(NC3CCN(C(=O)c4cn[nH]c4-c4ccccc4)CC3)nc2)c1 [Example 4-28] to Cc1cc(Nc2cc(C(F)(F)F)ccn2)nc(-c2ccc(NC3CCN(C(=O)c4cccc5ncccc45)CC3)nc2)c1 [Example 4-13], the IC50 falls from 0.027 µM to 0.009 µM (3-fold).

First: CC(C)(O)c1cc(Nc2cc(C(F)F)ccn2)nc(-c2ccc(C(C)(O)C3CCC(C(=O)O)CC3)nc2)c1 (stereo not drawn) [Example 1-34]
Second: Cc1cc(Nc2cc(C(F)(F)F)ccn2)nc(-c2ccc(NC3CCN(C(=O)c4cn(Cc5ccccc5)c5ccccc45)CC3)nc2)c1 [Example 4-60]
The IC50 of the first is 420-fold lower: 0.001 µM for the first, 0.422 µM for the second.

From US9145391B2, “Bipyridylaminopyridines as Syk inhibitors” (Merck Sharp & Dohme Corp., priority 2011, dated 2015)
